Laboratory results taken from patent US8552176B2 (priority 2010, dated 2013).
Where two headings read alike, the source gives them in different places.

Legend:
Experiment in all cases: cells
[1] = test system: HT29; format: cell-based, human; details: read-out: GI50 HT29 colorectal
[2] = test system: SKOV3; format: cell-based, human; details: read-out: GI50 SKOV3 ovary
[3] = test system: HCT-15; format: cell-based, human; details: read-out: GI50 HCT-15 colorectal
[4] = test system: SF-268; format: cell-based, human; details: read-out: GI50 SF-268 CNS
[5] = test system: ten-member panel of human carcinomas; format: cell-based
[6] = test system: MCF7; format: cell-based, human; details: read-out: GI50 MCF7 breast
[7] = test system: A549; format: cell-based, human; details: read-out: GI50 A549 lung (+p53)
[8] = test system: DU-145; format: cell-based, human; details: read-out: GI50 DU-145 prostate
[9] = test system: Hep3b; format: cell-based, human; details: read-out: GI50 Hep3b liver
[10] = test system: NCI-H460; format: cell-based, human; details: read-out: GI50 NCI-H460 lung
[11] = test system: H1299; format: cell-based, human; details: read-out: GI50 H1299 lung (−p53)

Row | SMILES | GI50 [1] | GI50 [2] | GI50 [3] | GI50 [4] | GI50 [6] | GI50 [7] | GI50 [8] | GI50 [9] | GI50 [10] | GI50 [11] | further results
1 | O=C(O)CCCc1ccc(N(CCCl)CCCl)cc1 [Compound 1, Chlorambucil, reference compound] |  |  |  |  |  |  |  |  |  |  | GI50 ([1]; Homo sapiens, HT-29, 168 h): 5 ± 0.3 µM; GI50 ([2]; Homo sapiens, SK-OV-3, 168 h): 5.5 ± 0.4 µM; GI50 ([3]; Homo sapiens, HCT-15, 168 h): 8.1 ± 0.1 µM; GI50 ([4]; Homo sapiens, SF-268, 168 h): 5.4 ± 0.1 µM; GI50 ([5]; Homo sapiens, read-out: GI50 values): 5 to 11 µM; GI50 ([6]; Homo sapiens, MCF7, 168 h): 8.2 ± 0.2 µM; GI50 ([7]; Homo sapiens, A549, 168 h): 6.1 ± 0.3 µM; GI50 ([8]; Homo sapiens, DU-145, 168 h): 9.4 ± 0.2 µM; GI50 ([9]; Homo sapiens, Hep3B, 168 h): 5.1 ± 0.2 µM; GI50 ([10]; Homo sapiens, NCI-H460, 168 h): 11 ± 0.9 µM; GI50 ([11]; Homo sapiens, NCI-H1299, 168 h): 4.9 ± 0.2 µM
2 | CON(CCCCc1ccc(N(CCCl)CCCl)cc1)C1OCC(O)C1O (stereo not shown) [Compound 19] | 1.6 ± 0.1 µM | 2.6 ± 0.9 µM | 0.77 ± 0.09 µM | 2.4 ± 0.8 µM | 8 ± 0.1 µM | 3.1 ± 0.8 µM | 5 ± 0.7 µM | 4.1 ± 0.9 µM | 7.8 ± 0.9 µM | 1.1 ± 0.1 µM | 
3 | C=CCOC(=O)NCC1OC(N(CCCCc2ccc(N(CCCl)CCCl)cc2)OC)C(O)C(O)C1O (stereo not shown) [Compound 35] | 2.8 ± 0.2 µM | 2.9 ± 0.1 µM | 2.1 ± 0.1 µM | 3.1 ± 0.1 µM | 7.4 ± 0.1 µM | 4.5 ± 0.3 µM | 6.2 ± 0.4 µM | 4.6 ± 0.2 µM | 11 ± 0.1 µM | 2.1 ± 0.1 µM | 
4 | CON(CCCCc1ccc(N(CCCl)CCCl)cc1)C1CC(O)C(O)CO1 (mixture of isomers) [Compound 56] | 2.3 ± 0.1 µM | 2.2 ± 0.1 µM | 2.2 ± 0.1 µM | 2 ± 0.1 µM | 1.3 ± 0.2 µM | 2.5 ± 0.1 µM | 3.3 ± 0.1 µM | 2.5 ± 0.1 µM | 5.2 ± 0.6 µM | 3.9 ± 0.5 µM | 
5 | CON(CCCCc1ccc(N(CCCl)CCCl)cc1)C1OC(C)C(OC(C)=O)C(OC(C)=O)C1OC(C)=O (stereo not shown) [Compound 52] | 4.3 ± 0.2 µM | 3.9 ± 0.1 µM | 3.7 ± 0.2 µM | 3 ± 0.1 µM | 3.2 ± 0.6 µM | 3.5 ± 0.1 µM | 4.5 ± 0.1 µM | 4.6 ± 0.2 µM | 7.8 ± 0.8 µM | 5 ± 0.4 µM | 
6 | CON(CCCCc1ccc(N(CCCl)CCCl)cc1)C1OC(CN)C(O)C(O)C1O (mixture of isomers) [Compound 34] | 2.5 ± 0.1 µM | 2.2 ± 0.1 µM | 1.3 ± 0.1 µM | 2.2 ± 0.1 µM | 3.7 ± 0.4 µM | 3.7 ± 0.2 µM | 2.8 ± 0.1 µM | 3.5 ± 0.2 µM | 5 ± 0.4 µM | 1.1 ± 0.1 µM | 
7 | COC1C(O)C(CO)OC(N(CCCCc2ccc(N(CCCl)CCCl)cc2)OC)C1O (stereo not shown) [Compound 33] | 2.7 ± 0.2 µM | 2.4 ± 0.1 µM | 1.1 ± 0.1 µM | 2.8 ± 0.1 µM | 8.3 ± 0.1 µM | 3.6 ± 0.2 µM | 5.1 ± 0.1 µM | 4.2 ± 0.2 µM | 7.8 ± 0.08 µM | 1.7 ± 0.1 µM | 
8 | CON(CCCCc1ccc(N(CCCl)CCCl)cc1)C1OC(C)C(O)C(O)C1O (mixture of isomers) [Compound 21] | 2.3 ± 0.1 µM | 1.8 ± 0.1 µM | 1.4 ± 0.1 µM | 2 ± 0.1 µM | 0.78 ± 0.09 µM | 2.2 ± 0.1 µM | 3.8 ± 0.1 µM | 3 ± 0.1 µM | 5.4 ± 0.3 µM | 1.2 ± 0.1 µM | 
9 | CON(CCCCc1ccc(N(CCCl)CCCl)cc1)C1CC(O)C(O)C(C)O1 (mixture of isomers) [Compound 18] | 2.1 ± 0.09 µM | 3 ± 0.1 µM | 1.3 ± 0.1 µM | 2.8 ± 0.1 µM | 6.3 ± 0.1 µM | 2.7 ± 0.2 µM | 4.3 ± 0.1 µM | 3.2 ± 0.1 µM | 6.5 ± 0.4 µM | 1.1 ± 0.1 µM | 
10 | CON(CCCCc1ccc(N(CCCl)CCCl)cc1)C1OCC(O)C(O)C1O (mixture of isomers) [Compound 53, N-Methoxy-4-(4-N′,N′-bis(2-chloroethyl)amino)phenylbutylamino-D-riboside] | 2.3 ± 0.1 µM | 2 ± 0.1 µM | 1.8 ± 0.1 µM | 1.9 ± 0.1 µM | 1.1 ± 0.1 µM | 2.8 ± 0.1 µM | 3.8 ± 0.6 µM | 2.4 ± 0.1 µM | 5.9 ± 0.7 µM | 3.6 ± 0.3 µM | GI50 ([5]; read-out: GI50): 1.8 to 5.9 µM
11 | O=C(CCCc1ccc(N(CCCl)CCCl)cc1)NN[C@@H]1O[C@H]2[C@H](OC(=O)[C@H]2O)[C@H]1O [Compound 73, 4-(4-N′,N′-bis(2-chloroethyl)amino)phenylbutylhydrazido-D-glucurono-6,3-lactonide] | 30 ± 2 µM | 37 ± 2 µM | > 100 µM | 8.9 ± 0.4 µM | 9.9 ± 0.5 µM | 31 ± 2 µM | 23 ± 2 µM | 17.7 ± 0.4 µM | 43 ± 4 µM | 12.9 ± 0.7 µM | 
12 | CON(CCCCc1ccc(N(CCCl)CCCl)cc1)C1OC(CO)C(O)C(O)C1O (mixture of isomers) [Compound 43] | 2.6 ± 0.2 µM | 2.3 ± 0.1 µM | 1.9 ± 0.2 µM | 1.8 ± 0.1 µM | 1.9 ± 0.1 µM | 3.5 ± 0.2 µM | 5.1 ± 0.2 µM | 3.2 ± 0.2 µM | 7.8 ± 0.7 µM | 1.01 ± 0.07 µM | 
13 | O=C(CCCc1ccc(N(CCCl)CCCl)cc1)NN=CC(O)C(O)CO (mixture of isomers) [Compound 74, 4-(4-N′,N′-bis(2-chloroethyl)amino)phenylbutylhydrazido-D-threoside inline] | 4.8 ± 0.1 µM | 6.2 ± 0.6 µM | 7.3 ± 0.4 µM | 2.6 ± 0.2 µM | 4.2 ± 0.2 µM | 7.5 ± 0.5 µM | 9.5 ± 0.7 µM | 4.1 ± 0.4 µM | 10.8 ± 0.8 µM | 2.6 ± 0.2 µM | 
14 | CON(CCCCc1ccc(N(CCCl)CCCl)cc1)C1OC(C)C(OCc2ccccc2)C(OCc2ccccc2)C1OCc1ccccc1 (mixture of isomers) [Compound 22] | 7.5 ± 0.3 µM | 7.2 ± 0.4 µM | 4.6 ± 0.2 µM | 5.7 ± 0.2 µM | 4 ± 1 µM | 6.4 ± 0.2 µM | 10 ± 0.4 µM | 9.5 ± 0.4 µM | 15.8 ± 0.7 µM | 3.3 ± 0.2 µM | 
